Holding throughout (format): cell-based
Assay [1] addresses T1, 5-lipoxygenase (Human Leukocyte/PMNL 5-LPO) (Homo sapiens, UniProt P09917).
T1 construct: Human neutrophils and platelets were obtained from the blood of normal volunteers; endogenous in cells; host or cells: human blood leukocytes (neutrophils) of normal volunteers, with 0.1 to 0.5 platelets per leukocyte
T1 sequence (P09917 1-674): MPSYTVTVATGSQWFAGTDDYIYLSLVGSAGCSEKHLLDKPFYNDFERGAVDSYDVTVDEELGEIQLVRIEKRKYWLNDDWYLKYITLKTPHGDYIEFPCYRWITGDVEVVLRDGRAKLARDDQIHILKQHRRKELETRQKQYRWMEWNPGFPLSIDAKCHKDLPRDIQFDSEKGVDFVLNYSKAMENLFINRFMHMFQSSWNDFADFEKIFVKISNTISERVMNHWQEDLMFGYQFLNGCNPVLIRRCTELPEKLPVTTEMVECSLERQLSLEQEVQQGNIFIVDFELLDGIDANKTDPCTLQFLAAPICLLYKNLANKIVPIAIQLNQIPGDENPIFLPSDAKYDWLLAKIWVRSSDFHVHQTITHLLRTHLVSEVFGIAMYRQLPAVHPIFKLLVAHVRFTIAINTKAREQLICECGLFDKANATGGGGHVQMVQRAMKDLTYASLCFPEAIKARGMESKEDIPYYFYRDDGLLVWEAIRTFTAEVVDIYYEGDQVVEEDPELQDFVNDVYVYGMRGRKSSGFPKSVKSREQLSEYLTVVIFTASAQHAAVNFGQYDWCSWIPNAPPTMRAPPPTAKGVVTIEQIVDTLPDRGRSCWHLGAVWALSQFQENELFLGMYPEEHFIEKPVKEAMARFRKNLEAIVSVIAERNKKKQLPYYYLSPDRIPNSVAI
Description: Inhibition of 5-lipoxygenase (5-HETE formation) in human neutrophil/platelet system. To be noted: for % Inhibition at 100 μm: 4-alkoxyphenyl compounds. An excerpt:
This test is a measure of the inhibition of the synthesis of lipoxygenase products generated by human neutrophils and platelets. The protocol is similar to that described in the article "Comparative Effects of Indomethacin, Acetylenic Acids, 15-HETE, NDGA and BW755C on the Metabolism of Arachidonic Acid in Human Leukocytes and Platelets", H. Solari, P. Braquet and P. Borgeat, Prost. Leuk. Med. 13, pp. 53-60, 1984.
Human neutrophils and platelets were obtained from the blood of normal volunteers. The blood was collected into tubes containing EDTA as an anticoagulant. The blood was centrifuged at 250×g for 15 minutes and the platelet rich plasma was removed. The cell fraction was mixed with an equal volume of 0.9% saline containing 10 mM dextrose and resuspended in Dulbecco's phosphate buffered saline (PBS) without Mg^++ and Ca^++ and was counted. The cell suspension was adjusted to give a leukocyte count of 2-3×10^7 cells/ml.
Test compounds were dissolved in ethanol and added to polypropylene tubes. To control tubes (drug-free) only ethanol was added. The ethanol was evaporated to dryness under a stream of argon and then 0.1 ml of the cell suspension (2-3×10^6 cells) was added. This mixture was pre-incubated for 5 minutes at 37° and then the reaction was initiated by addition of ^3 H-arachidonic acid, calcium ionophore (A23187), and calcium ion. The final concentration of each component was: arachidonic acid, 10 uM; A23187, […]; calcium ion, […]. After 5 minutes the incubations were stopped by addition of an equal volume of methanol. The tubes were spun at 11,000 g for 2 minutes to pellet the precipitated protein. The supernatant was analyzed by HPLC for 5-HETE. The formation of this product is indicative of 5-lipoxygenase activity. Test drugs were evaluated for their ability to inhibit 5-HETE formation. Percent inhibition of varying concentrations of test drugs was determined in duplicate by comparing the peak quantitation in the presence and absence (control) of drug. […] The IC50 values were calculated from log-dose response curves of pooled data from at least two experiments by linear regression analysis.
The activity was tested by the same method as in the previous example.
The enzyme inhibitory activity of these compounds was tested by the same method.

A further assay has as its target T2, Human Platelet CO (Homo sapiens, UniProt P23219).
T2 construct: Human neutrophils and platelets were obtained from the blood of normal volunteers; endogenous in cells; host or cells: human platelets from blood of normal volunteers
The assay is described as follows: Inhibition of CO, human platelet. To be noted: for pIC50: 95% confidence interval given for some; for % I Human Platelet CO / inhibition at 100 µM: @ 100 μM; for inhibition at 100 µM: read-out: % I Human Platelet CO.

The next assay addresses T3, Human Platelet 12-LPO (Homo sapiens, UniProt P18054).
T3 construct: Human neutrophils and platelets were obtained from the blood of normal volunteers; endogenous in cells; host or cells: human platelets from blood of normal volunteers
T3 sequence (P18054 1-663): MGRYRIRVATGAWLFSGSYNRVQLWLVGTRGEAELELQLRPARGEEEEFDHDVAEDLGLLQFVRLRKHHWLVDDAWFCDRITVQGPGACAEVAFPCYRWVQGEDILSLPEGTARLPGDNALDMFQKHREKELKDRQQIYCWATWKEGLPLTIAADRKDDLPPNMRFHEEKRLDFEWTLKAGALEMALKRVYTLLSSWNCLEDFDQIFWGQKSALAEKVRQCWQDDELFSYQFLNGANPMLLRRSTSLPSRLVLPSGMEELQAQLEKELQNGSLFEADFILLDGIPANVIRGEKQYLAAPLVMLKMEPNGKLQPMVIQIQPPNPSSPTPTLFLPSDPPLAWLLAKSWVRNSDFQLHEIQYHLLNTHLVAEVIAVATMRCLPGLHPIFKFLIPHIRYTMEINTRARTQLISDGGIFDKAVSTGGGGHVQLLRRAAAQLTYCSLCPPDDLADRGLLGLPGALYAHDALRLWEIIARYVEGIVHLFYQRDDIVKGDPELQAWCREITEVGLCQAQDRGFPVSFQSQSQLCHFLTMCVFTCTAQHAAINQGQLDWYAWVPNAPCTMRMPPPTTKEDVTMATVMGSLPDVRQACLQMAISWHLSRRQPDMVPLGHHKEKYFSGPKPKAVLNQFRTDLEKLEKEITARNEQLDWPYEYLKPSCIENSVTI
Description: Inhibition of 12-LPO, human platelet. To be noted: for inhibition at 100 µM: read-out: % I Human Platelet 12-LPO; for pIC50: 95% confidence interval.

Setting [2] is: FIG. 1 table, 95% confidence interval, read-out: IC50 Human PMNL 5-LPO.
[3] abbreviates: Table I, R=H, phenylalkyl hydroxamic acids, read-out: IC50 5-LPO (Inhibition of Human Leukocyte 5-LPO).
[4] abbreviates: ring-substituted 9-phenylnonanohydroxamic acids, read-out: IC50 (5-lipoxygenase).
Setting [5] is: text comparison with prior-art compound, read-out: IC50 in the 5-lipoxygenase inhibition test.
The mark [6] stands for this setting: PMNL, read-out: % I Human PMNL 5-LPO.

pIC50: −log10 of the molar value. Read-outs that look alike come from different tables or passages of the source.

T2 sequence (P23219 24-599): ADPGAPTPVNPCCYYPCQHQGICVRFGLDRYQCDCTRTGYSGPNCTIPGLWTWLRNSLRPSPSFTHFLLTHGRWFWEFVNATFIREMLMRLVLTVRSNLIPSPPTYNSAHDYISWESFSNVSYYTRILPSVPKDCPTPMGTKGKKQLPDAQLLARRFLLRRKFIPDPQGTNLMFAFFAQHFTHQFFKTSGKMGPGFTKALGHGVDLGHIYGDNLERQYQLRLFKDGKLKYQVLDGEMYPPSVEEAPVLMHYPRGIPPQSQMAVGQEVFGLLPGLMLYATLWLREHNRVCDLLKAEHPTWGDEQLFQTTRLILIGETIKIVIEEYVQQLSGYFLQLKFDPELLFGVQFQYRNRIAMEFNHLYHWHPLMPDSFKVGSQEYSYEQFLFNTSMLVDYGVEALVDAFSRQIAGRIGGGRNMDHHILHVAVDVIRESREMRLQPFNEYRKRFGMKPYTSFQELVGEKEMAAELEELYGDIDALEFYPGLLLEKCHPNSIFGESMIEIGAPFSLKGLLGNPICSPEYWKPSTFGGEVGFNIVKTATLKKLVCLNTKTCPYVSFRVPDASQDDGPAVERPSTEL

Take `O=C(CCCCCCCCCc1ccccc1)NO` [Compound 2c]: the pIC50 in assay [1] (setting [2]) was 4.94; at Human Platelet CO, 4.49. Also, at Human Platelet 12-LPO, the inhibition at 100 µM amounted to 10%.
On to `CC(C)N(O)C(=O)CCCCCCCCCCCCCCc1ccccc1` [BMY30229], for which the negative-log IC50 (pIC50) in assay [1] (setting [2]) is 4.10. The “% I Human Platelet CO” value on Human Platelet CO is “inactive”. Further, the inhibition at 100 µM at Human Platelet 12-LPO is 10%.
For `O=C(CCCCCCCCCCCCCCc1ccccc1)NO` [BMY30152], the inhibition at 50 µM in assay [1] (PMNL, @ 50 μM, read-out: % I Human PMNL 5-LPO) came out at 7.5%. The pIC50 in assay [1] (setting [3]) was less than 4.00.
For `CN(O)C(=O)CCCCCCCCCc1ccccc1` [BMY30217], the figures for the pIC50 (in assay [1] (setting [2]); against Human Platelet CO; against Human Platelet 12-LPO) were 7.05, 5.34 and 5.26, respectively.
On to `COc1ccc(CCCCCCCCC(=O)NO)cc1` [BMY 30173, 9(4-Methoxyphenyl)nonanohydroxamic acid], for which the pIC50 in assay [1] (setting [4]) was 5.62.
For the compound `CN(O)C(=O)CCCCCCCCc1ccccc1` [BMY30223], the pIC50 was 6.77 in assay [1] (setting [2]), 5.68 at Human Platelet CO and 5.60 at Human Platelet 12-LPO.
Consider `CC(C)N(O)C(=O)CCCc1ccccc1` [BMY30227], for which, in assay [1] (setting [2]), the pIC50 was 6.15. Further, the results for the inhibition at 100 µM on Human Platelet CO and at Human Platelet 12-LPO were 7% and 31%, respectively.
For the compound `CC(C)N(O)C(=O)CCCCc1ccccc1` [BMY30226], in assay [1] (setting [2]), the pIC50 was 6.05. Also, the values for the inhibition at 100 µM at Human Platelet CO and at Human Platelet 12-LPO were 25% and 59%, respectively.
Consider `O=C(CCCCCCCCCCc1ccccc1)NO` [Compound 2d], for which, in assay [1] (setting [3]), the negative-log IC50 (pIC50) is 4.96.
`CC(C)N(O)C(=O)CCCCCCc1ccccc1` [BMY30222]: the negative logarithm of the IC50 (pIC50) in assay [1] (setting [2]) is 7.15; against Human Platelet CO, 4.51; against Human Platelet 12-LPO, 4.90.
Take `O=C(CCCCCCCCCCCCc1ccccc1)NO` [n=12, reference compound]: the pIC50 in assay [1] (setting [3]) is less than 4.30.
Regarding `O=C(CCCCCc1ccccc1)NO` [reference compound], the negative logarithm of the IC50 (pIC50) in assay [1] (setting [5]) is less than 4.00.
Consider `CC(C)N(O)C(=O)CCCCCCCCCc1ccccc1` [BMY30218], for which the pIC50 in assay [1] (setting [2]) is 6.85; against Human Platelet CO, 5.12; on Human Platelet 12-LPO, 4.57.
Regarding `O=C(CCCCc1ccccc1)NO` [BMY30083], in assay [1] (setting [6]), the inhibition at 100 µM amounted to 22%. Also, the pIC50 in assay [1] (setting [3]) is less than 4.00.
Regarding `CN(O)C(=O)CCCCCCCCCCCCCCc1ccccc1` [BMY30228], the pIC50 in assay [1] (setting [2]) is 4.60. For the same compound, the “% I Human Platelet CO” value on Human Platelet CO is “inactive”. In addition, the inhibition at 100 µM on Human Platelet 12-LPO worked out at 17%.
As for `CC(C)N(O)C(=O)CCCCCCCCc1ccccc1` [BMY30224], the pIC50 in assay [1] (setting [2]) is 6.74; at Human Platelet CO, 4.74; against Human Platelet 12-LPO, 4.86.
Turning to `O=C(CCCc1ccccc1)NO` [BMY30077], the inhibition at 100 µM in assay [1] (setting [6]) was found to be 11%. For the same compound, in assay [1] (setting [3]), the pIC50 was less than 4.00.
Regarding `O=C(CCCCCCCc1ccccc1)NO` [Compound 2b], the results for the pIC50 (in assay [1] (setting [2]); against Human Platelet CO) were 4.91 and 4.59, respectively. Also, the inhibition at 100 µM at Human Platelet 12-LPO is 53%.
Take `O=C(CCCCCCCCc1ccc(Cl)cc1)NO` [BMY 30174, 9(4-chlorophenyl)nonanohydroxamic acid]: in assay [1] (setting [4]), the negative logarithm of the IC50 (pIC50) is 5.21.
In the case of `O=C(CCc1ccccc1)NO` [n=2, reference compound], the pIC50 in assay [1] (setting [3]) is less than 4.00.
`CCCCCCOc1ccc(CCCCCCCCC(=O)N(C)O)cc1` [BMY 30241, N-Methyl 9(4-Hexyloxyphenyl)nonanohydroxamic acid]: the “% Inhibition at 100 μm” value in assay [1] was determined as 95.9%.
In the case of `O=C(CCCCCCc1ccccc1)NO` [Compound 2a], the pIC50 in assay [1] (setting [5]) was 4.68.
Consider `O=C(NO)c1ccccc1` [n=0, reference compound], for which the pIC50 in assay [1] (setting [3]) was less than 4.00.
For `O=C(Cc1ccccc1)NO` [n=1, reference compound], in assay [1] (setting [3]), the pIC50 is less than 4.00.
Consider `CCCCCCOc1ccc(CCCCCCCCC(=O)N(O)C(C)C)cc1` [BMY 30240, N-isopropyl 9(4-hexyloxyphenyl)nonanohydroxamic acid], for which the “% Inhibition at 100 μm” value in assay [1] is 45.8%.
Take `CC(C)N(O)C(=O)CCCCCCCc1ccccc1` [BMY30214]: the pIC50 was 6.80 in assay [1] (setting [2]), 5.38 at Human Platelet CO and 5.35 on Human Platelet 12-LPO.
In the case of `COc1cccc(CCCCCCCCC(=O)NO)c1` [BMY 30181, 9(3-methoxyphenyl)nonanohydroxamic acid], the pIC50 in assay [1] (setting [4]) was 5.27.
On to `CCCCCCOc1ccc(CCCCCCCCC(=O)NO)cc1` [BMY 30230, 9(4-Hexyloxyphenyl)nonanohydroxamic acid], for which, in assay [1], the “% Inhibition at 100 μm” value is 0%.
The same measure, in the same setting: next, `CCCCOc1ccc(CCCCCCCCC(=O)NO)cc1` [BMY 30239, 9(4-Butoxyphenyl)nonanohydroxamic acid]: 56.0%.
With `O=C(CCCCCCCCCCCc1ccccc1)NO` [Compound 2e], in assay [1] (setting [3]), the pIC50 was 4.99.
For `CN(O)C(=O)CCCCCCCc1ccccc1` [BMY30208, N-methyl-8-phenyloctanohydroxamic acid], the figures for the pIC50 (in assay [1] (setting [2]); against Human Platelet CO; against Human Platelet 12-LPO) were 7.00, 5.54 and 5.44, respectively.
As to `Cc1cccc(CCCCCCCCC(=O)NO)c1` [BMY 30182, 9(3-methylphenyl)nonanohydroxamic acid], in assay [1] (setting [4]), the pIC50 was 5.21.

As usually defined, the pIC50 is the IC50 on a negative log10 scale, so that one unit is a factor of ten. Broadly, the % Inhibition is the share of the control response that was lost under treatment. A lower % Inhibition goes with a weak effect.

The values above are taken from patent US4861798A, “Lipoxygenase inhibitory compounds” (Bristol-Myers Company, priority 1987, dated 1989).
